Experimental findings from publication PMC12246082, “Structural basis for catalysis by human lipoyl synthase” (Nature Communications, 2025) are described below.

Ends that are not written are not given here. * marks the point of attachment. Octanoyl = CCCCCCCC(=O)*

The target of test [1] is T1, human LIAS (lipoyl synthase) (Homo sapiens, UniProt O43766).
T1 construct: residues 65-372, N-terminal His6-tag with 10-aa linker kept (pET-28a), E. coli BL21(DE3) with pDB1282; two [Fe4S4] clusters; monomeric in asymmetric unit of 8TRW
T1 sequence (O43766 65-372): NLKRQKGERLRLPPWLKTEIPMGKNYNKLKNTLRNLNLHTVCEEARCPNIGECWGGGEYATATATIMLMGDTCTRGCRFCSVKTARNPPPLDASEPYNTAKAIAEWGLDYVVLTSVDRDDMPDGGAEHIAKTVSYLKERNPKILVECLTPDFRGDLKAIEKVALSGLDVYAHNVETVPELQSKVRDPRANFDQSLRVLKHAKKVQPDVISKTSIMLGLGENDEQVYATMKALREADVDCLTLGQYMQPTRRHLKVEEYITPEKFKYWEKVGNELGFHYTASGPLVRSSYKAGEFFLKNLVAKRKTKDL
The experiment in a line: X-ray crystal structure, […] Å. The test is classed as binding. The note with it: co-crystallised with 5'-dAH and OCT-8mer, anaerobic; bidentate to unique Fe of radical SAM [Fe4S4] cluster.

The target of test [2] is T2, truncated human lipoyl synthase (LIAS isoform 1, aa 65–372) (human).
T2 construct: lipoyl synthase (LIAS), human, isoform 1, residues 65-372; Holds two [Fe4S4] clusters (RS and auxiliary); in the complex with Hpro the auxiliary cluster is [Fe3S3:1 mercaptooctanoyllysyl]; also called human LIAS; trnLIAS; source: E. coli BL21 (DE3) co-transformed with pDB1282, purified anaerobically (Ni-NTA, size-exclusion S-200); not shown: His6 (separated from the protein by a ten aa linker), …
T2 chain: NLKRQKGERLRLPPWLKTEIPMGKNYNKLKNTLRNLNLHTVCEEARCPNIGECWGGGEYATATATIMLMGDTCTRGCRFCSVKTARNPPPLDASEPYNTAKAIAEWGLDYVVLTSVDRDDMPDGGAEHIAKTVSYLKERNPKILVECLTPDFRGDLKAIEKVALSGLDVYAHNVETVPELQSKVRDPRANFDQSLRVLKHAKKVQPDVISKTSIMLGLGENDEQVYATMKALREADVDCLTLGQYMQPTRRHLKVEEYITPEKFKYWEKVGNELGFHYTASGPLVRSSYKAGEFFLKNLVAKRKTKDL
The experiment in a line: crystal structure; LIAS (8 mg/ml) co-crystallised with 2.5 mM L-Met, 1 mM 5’-dAH and a 1.3x molar ratio of OCT-8mer; anaerobic, hanging drop, 0.1 M HEPES pH 7.5, 0.2 M Na2SO4, 30% PEG 3350, 3% trehalose. The settings on record: both partners purified.

On to `CSCC[C@H](N)C(=O)O` [Met, methionine], for which the “X-ray crystal structure, 1.58 Å” value in test [1] is “The oxygen and nitrogen atoms of Met are coordinated to the unique iron”.

B1: octanoyl-containing eight amino acid peptide substrate mimic, Glu-Ser-Val-(N6-octanoyl)Lys-Ala-Ala-Ser-Asp (peptide)
peptide: ESVK(Octanoyl)AASD
notes: printed in three-letter code; human Hpro 104-111 is ESVKAASE; also called OCT-8mer; OCT-8-mer; source: synthetic peptide, custom-synthesized by Proimmune (Oxford, UK)
Take B1: the binding result in test [2] was “binds”.
